The text below walks through data of US20240115711A1, “Novel Bifunctional Molecules For Targeted Protein Degradation” (Amphista Therapeutics Limited, priority 2020, published 2024).

The test system of data set [1] is tumor cell lines. To be noted: up to 94 tumor cell lines, from Ottis et al, identical assay conditions, cited from earlier work; for # tumor cell lines Low sensitivity/Resistant: degrader GI50 < inhibitor; for # tumor cell lines Highly sensitive: degrader GI50 >3 fold more potent than inhibitor.
For a further data set, the system named is MV4;11 cells. Nature of the data set: Assay 3 - MV4;11 cell viability using CellTiter-Glo assay. Type of data set: cell-based. To be noted: Homo sapiens, 48 h incubation. The method, then:
1.3 Assay 3—MV4;11 Cell Viability Using CellTiter-Glo Assay
The anti-proliferative effects of representative compounds were measured using the CellTiter-Glo assay (Promega). MV4;11 cells were seeded into sterile, white, clear-bottomed 384-well cell-culture microplates (Greiner Bio-one), at 2× concentration in IMDM media and a volume of 25 μL. Test compounds were serially diluted (11-pt dose-response from 1 μM) in IMDM media to 2× concentration, then added to cells to make a final volume of 50 μL. Final DMSO concentration was 0.05%. After 48 h incubation, 25 μL of CellTiter-Glo reagent was added to each well. Following a 15 minutes incubation the luminescence signal was read on a CLARIOStar Plus. Data was processed and dose-response curves were generated using Prism 8 (Graphpad).
The impact on cell viability of MV4;11 cells was evaluated according to the procedure outlined in assay 3 for compounds A1, A2, A8 and A9.

Data set [2] has as its system tumor cell lines. Nature of the data set: Cancer cell panel screening, GI50 by Sulforhodamine B method. It is filed as cell-based. To be noted: up to 94 tumor cell lines, 72 h. The method, then:
Cancer cell panel screening was provided as a service from OncoLead GmbH & Co. KG. After a lag phase of 48 h, each cell line was treated with six different concentrations (10^−10, 10^−9, 10^−8, 10^−7, 10^−6, 10^−5 M) of either A2 or I-BET726 for 72 h. Concentrations to give half-maximal growth inhibition (GI50) were determined using the Sulforhodamine B method. Log(GI50) values were plotted as single points (I-BET726, cross; A2, dot) superimposed on the bar graph and plotted along the right y axis. Log ratio of the GI50 determined for I-BET726 versus the GI50 determined for A2 were plotted for each cell line tested (bars, left y axis).
Where no specific GI50 value could be determined, a GI50 of at least 10^−5 M was assumed to calculate the inhibitor vs degrader ratio.
Similar studies have previously been carried out on CRBN PROTAC (dBET6) and VHL PROTAC (MZ1) (see, for example, Ottis et al, ACS Chem. Biol. 2019, 14, 2215-2223 under identical assay conditions).
Low sensitivity/resistant defined as degrader GI50<inhibitor.

The target of a further data set is T1, HiBit-BRD4 (Homo sapiens, UniProt O60885).
T1 construct: HEK293 containing a HiBit insertion for BRD4; endogenous in cells; host or cells: HEK293 with HiBit insertion at BRD4
Nature of the data set: Assay 1 - Degradation of HiBit-BRD4 in HEK293. It is filed as cell-based. To be noted: HiBit-BRD4 HEK293, 6 h treatment. The method, then:
1.1 Assay 1—Degradation of HiBit-BRD4 in HEK293
HEK293 containing a HiBit insertion for BRD4 were plated in 384-well tissue culture plates at a density of 8×10^4 per well in a volume of 36 μL and incubated overnight at 37° C. and 5% CO2. Wells were treated with test compounds for 6 h prior to addition of the NanoLuc substrate and reading on a […]. Degradation data was plotted and analysed using […] (Graphpad).
The degradation of target protein BRD4 was detected according to the procedure outlined in assay 1 for the following compounds.

Data set [3] can be described thus: In vivo systemic drug exposure after oral and intravenous dosing. To be noted: female, mouse, plasma, C57BL/6 mice. On the procedure: Test compound was administered to C57BL/6 mice, (6-8 weeks, 18-20 g, female, N=6, purchased from JH Laboratory Animal Co. with free access to food and water) at the indicated dose level via oral gavage (p.o., 10 mL/kg, 5% DMSO+95%(15% HP-β-CD in Water) vehicle, oral dosing leg) or tail vein (i.v., 5 mL/kg, 5% DMSO+95%(15% HP-β-CD in Water) vehicle, intravenous leg). The animal was restrained manually at designated time points up to 24 h, approximately 110 μL of blood sample was collected via facial vein into K2EDTA tubes. Blood sample was put on ice and centrifuged at 2000 g for 5 min to obtain plasma sample within 15 minutes which was analysed on an LC-MS/MS-19 (Triple Quad 5500) in positive ion ESI mode following sample prep and HPLC elution:
Mobile Phase: • Mobile Phase A: H2O—0.025% FA—1 mM NH4OAC • Mobile Phase B: MeOH—0.025% FA—1 mM NH4OAc
• Column: ACQUITY UPLC BEH C18 2.1*50 mm 1.7 um • Flow rate: 0.60 mL/min • Column temperature: 60° C.

Data set [4] is described as follows: In vivo drug exposure in the brain after systemic dosing. To be noted: C57BL/6 mice, intravenous 5 mg/kg dose. The method, then:
Blood collection: The animal was restrained manually at designated time points up to 24 h, approximately 110 μL of blood sample was collected via facial vein into K2EDTA tubes. Blood sample was put on ice and centrifuged at 2000 g for 5 min (4° C.) to obtain plasma sample within 15 minutes. Brain collection: The animal was euthanized under CO2. A mid-line incision was made in the animal's scalp and skin retracted. The skull overlying the brain was removed. The whole brain was collected, rinsed with cold saline, dried on filtrate paper, weighted, snap frozen by placing into dry-ice. The sample was homogenized with 3 volumes (v/w) of PBS prior to analysis. Samples were analysed on an LC-MS/MS-19 (Triple Quad 5500) in positive ion ESI mode following sample prep and HPLC elution: Mobile Phase: • Mobile Phase A: H2O—0.025% FA—1 mM NH4OAC • Mobile Phase B: MeOH—0.025% FA—1 mM NH4OAc • Column: waters BEH C18 (2.1×50 mm, 1.7 μm) • Flow rate: 0.60 mL/min • Column temperature: 60° C.

In another data set the target is T2, mutant KRas (G12C) (Homo sapiens, UniProt P01116, G12C).
T2 construct: endogenous in cells; host or cells: MIA-PaCa-2
T2 sequence (P01116 1-188 isoform P01116-2 G12C): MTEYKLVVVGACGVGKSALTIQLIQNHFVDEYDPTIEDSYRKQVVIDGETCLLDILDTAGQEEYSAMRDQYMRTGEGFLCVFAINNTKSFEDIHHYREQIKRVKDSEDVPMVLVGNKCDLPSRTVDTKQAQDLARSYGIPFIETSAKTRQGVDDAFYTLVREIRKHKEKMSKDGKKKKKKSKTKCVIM
Nature of the data set: Assay 6 - Degradation of KRas-G12C by immunoblot (MIA-PaCa-2 cells). It is filed as cell-based. To be noted: after 24 h treatment with 1000 nM. The method, then:
1.6 Assay 6—Degradation of KRas-G12C by Immunoblot.
MIA-PaCa-2 cells were seeded in 6- or 12-well plates overnight prior to 24 h treatment with test compounds at the desired concentration (DMSO final concentration 0.1%). After 24 h incubation, cells were washed with PBS and lysed with RIPA buffer (Sigma) supplemented with 1 mM MgCl2, 1 U/mL Benzonase (Sigma), and 1× cOmplete Mini EDTA-free Protease Inhibitor Cocktail (Roche). Lysates were clarified by centrifugation (15,000×g, 20 min, 4° C.) and the total protein content of the supernatant was quantified using a BCA assay. Samples were prepared using equal amounts of total protein and LDS sample buffer (Invitrogen). […] Blots were visualised using a Bio-Rad ChemiDoc MP Imaging System, and band quantification was performed using Image Studio software (LiCor). […] Degradation data was plotted and analysed using Prism (Graphpad, version 8).
The degradation of target protein mutant KRas (G12C) was detected according to the procedure outlined in […] for the compound A64.

Like-named read-outs stand apart in the source and are kept apart here.

With `Cc1sc2c(c1C)C(c1ccc(Cl)cc1)=N[C@@H](CC(=O)NCCCCCCCCNC(=O)COc1cccc3c1C(=O)N(C1CCC(=O)NC1=O)C3=O)c1nnc(C)n1-2` (stereo partly shown) [CRBN PROTAC (dBET6), dBET6], in the data set with tumor cell lines [1], the “# tumor cell lines GI50, <1 μM” value is listed as 58%; the “# tumor cell lines Low sensitivity/Resistant” value is listed as 52%; the “# tumor cell lines Highly sensitive” value was 29%.
In the case of `CCCC(NC(=O)/C(C#N)=C/c1nccs1)c1ccc(OCC(=O)NCCOCCOCCOCCOCCOCCNC(=O)c2ccc(-c3ccc4c(c3)[C@H](Nc3ccc(Cl)cc3)C[C@H](C)N4C(C)=O)cc2)cc1` (stereo partly drawn) [Example A1, 4-((2S,4R)-1-acetyl-4-((4-chlorophenyl)amino)-2-methyl-1,2,3,4-tetrahydroquinolin-6-yl)-N-(1-(4-(1-((E)-2-cyano-3-(thiazol-2-yl)acrylamido)butyl)phenoxy)-2-oxo-6,9,12,15,18-pentaoxa-3-azaicosan-20-yl)benzamide], the IC50 in the data set on MV4;11 cells turned out to be 48 nM.
For the molecule `CCCC(c1ccc(OCC(=O)NCCOCCOCCOCCOCCOCCNC(=O)c2ccc(-c3ccc4c(c3)[C@H](Nc3ccc(Cl)cc3)C[C@H](C)N4C(C)=O)cc2)cc1)N(C)C(=O)/C(C#N)=C/c1nccs1` (stereo partly drawn) [Example A2, 4-((2S,4R)-1-acetyl-4-((4-chlorophenyl)amino)-2-methyl-1,2,3,4-tetrahydroquinolin-6-yl)-N-(1-(4-(1-((E)-2-cyano-N-methyl-3-(thiazol-2-yl)acrylamido)butyl)phenoxy)-2-oxo-6,9,12,15,18-pentaoxa-3-azaicosan-20-yl)benzamide], in the data set on MV4;11 cells, the IC50 came out at 2 nM. Moreover, in the data set on tumor cell lines [2], the “# tumor cell lines GI50, <1 μM” value came to 100%. The “# tumor cell lines Highly sensitive” value with tumor cell lines [2] (highly sensitive = degrader GI50 >3 fold more potent than inhibitor) is 66%. Besides, the “# tumor cell lines Low sensitivity/Resistant” value in the data set with tumor cell lines [2] (low sensitivity/resistant = degrader GI50 < inhibitor) was 15%.
The molecule `CCCC(c1ccc(OCC(=O)NCCOCCOCCOCCOCCOCCNC(=O)c2ccc(-c3ccc4c(c3)[C@H](Nc3ccc(Cl)cc3)C[C@H](C)N4C(C)=O)cc2)cc1)N(C)C(=O)/C=C/c1nccs1` (stereo partly shown) [Example A6] registered a DC50 at HiBit-BRD4 of less than 10000 nM.
As to `CCCC1c2ccc(OCCN3CCC(C(=O)Nc4ncc(SCc5ncc(C(C)(C)C)o5)s4)CC3)cc2CCN1C(=O)/C(C#N)=C/c1cccc(Br)n1` (stereo not shown) [Example A37], the bioavailability in data set [3] (10 mg/kg oral vs 1 mg/kg intravenous) was found to be 7.2%. The AUC(0-inf) in data set [3] (intravenous 1 mg/kg dose) was 841 ng·h/mL; in data set [3] (oral 10 mg/kg dose), 605 ng·h/mL.
With `CCCC(c1ccc(CCCN2CCC(CNc3ncc(SCc4ncc(C(C)(C)C)o4)s3)CC2)cc1)N(C)C(=O)/C(C#N)=C/c1nc2ccccc2s1` (stereo not shown) [Example A39, 3-(benzo[d]thiazol-2-yl)-N-(1-(4-(3-(4-(((5-(((5-(tert-butyl)oxazol-2-yl)methyl)thio)thiazol-2-yl)amino)methyl)piperidin-1-yl)propyl)phenyl)butyl)-2-cyano-N-methylacrylamide], in data set [4], the “brain AUC(0-INF)” value turned out to be 845 ng·h/mL. Further, the Kp in data set [4] (female, mouse, brain and plasma, ratio of AUC(0-INF)) worked out at 0.6. Moreover, in data set [4] (female, mouse, plasma), the AUC(0-inf) was found to be 1340 ng·h/mL.
With `C=CC(=O)N1CCN(c2nc(OC[C@@H]3CCCN3CCCCNC(=O)CCc3ccc(C(CCC)N(C)C(=O)/C(C#N)=C/c4nccs4)cc3)nc3c2CCN(c2cccc4cccc(Cl)c24)C3)C[C@@H]1CC#N` (stereo partly drawn) [Example A64, (E)-N-[1-[4-[3-[4-[(2S)-2-[[7-(8-chloro-1-naphthyl)-4-[(3S)-3-(cyanomethyl)-4-prop-2-enoyl-piperazin-1-yl]-6,8-dihydro-5H-pyrido[3,4-d]pyrimidin-2-yl]oxymethyl]pyrrolidin-1-yl]butylamino]-3-oxo-propyl]phenyl]butyl]-2-cyano-N-methyl-3-thiazol-2-yl-prop-2-enamide], the “residual KRas (G12C) abundance” value at mutant KRas (G12C) was “less than 50%”.
As for `Cc1ncsc1-c1ccc(CNC(=O)[C@@H]2C[C@@H](O)CN2C(=O)[C@@H](NC(=O)COCCOCCOCCNC(=O)C[C@@H]2N=C(c3ccc(Cl)cc3)c3c(sc(C)c3C)-n3c(C)nnc32)C(C)(C)C)cc1` [VHL PROTAC (MZ1), MZ1], in the data set with tumor cell lines [1], the “# tumor cell lines GI50, <1 μM” value was 83%; the “# tumor cell lines Low sensitivity/Resistant” value is 26%; the “# tumor cell lines Highly sensitive” value is 47%.
